Experimental data published in publication PMC6588697, “Lugdunin amplifies innate immune responses in the skin in synergy with host- and microbiota-derived factors” (Nature Communications, 2019).
“And” between values parts separate entries of the source, which are not always exact repeats. Equal values may be shown once.

Columns and labels:
[1] = tested on: HEK293 cells; assay: CXCL8 expression in HEK-control cells (qRT-PCR); assay type: cell-based, human; details: 5 h, Fig 2b
Protocol: Fig. 2 Induction of chemokine (C-X-C motif) ligand 8/macrophage inflammatory protein-2 (CXCL8/MIP-2) by lugdunin is TLR2/MyD88-dependent. a HEK-control or HEK-TLR2 cells were treated with 2 μM lugdunin for 5 h and subsequently the CXCL8 concentration in the supernatant was analyzed by LEGENDplex^TM (BioLegend). Shown is one representative experiment of three independent experiments with two technical replicates ± s.e.m. b HEK-control or HEK-TLR2 cells were treated with increasing concentrations of lugdunin for 5 h and subsequently expression of CXCL8 was analyzed and normalized to actin. Shown is one representative experiment of three independent experiments with two technical replicates ± s.e.m. c Schematic overview of the mouse experiments: 6–8-week-old female C5BL/6 WT, MyD88-knockout (ko), or 5xTLR-ko mice were epicutaneously treated with 1.5 µg lugdunin or phosphate-buffered saline (PBS) as a control. After 24 h, mice were euthanized, 4 mm skin punches were taken, and further cultured in vitro for 10 h followed by cytokine analysis of the culture supernatant by LEGENDplex^TM (BioLegend). d, e Shown are the mean concentrations of IL-1α (d) or MIP-2 (e) in the skin culture supernatant of two skin punches from four mice each ± s.e.m. Significant differences to control treatments were analyzed by an unpaired two-tailed t test (*P < 0.05; **P < 0.01; ***P < 0.001). f Representative MIP-2-stained paraffin-embedded mouse skin sections. Scale bar, 100 µM. Source data are provided as a Source Data file
Quantitative reverse transcription-polymerase chain reaction (qRT-PCR) was performed in 10 µL reaction volume with SYBR^TM Green PCR Master Mix (Thermo Fisher) according to the manufacturer’s instructions using a LightCycler 96 (Roche Life Science). The initial denaturation step was at 95 °C for 5 min, followed by 40 cycles with 10 s each for the denaturation step at 95 °C, the annealing at individual temperature, and the elongation at 72 °C. Primer sequences and respective annealing temperatures are listed in Supplementary Table 1. […]

[2] = tested on: S. aureus; assay: S. aureus skin colonization after epicutaneous pretreatment of mouse skin (CFU); assay type: in vivo, C57BL/6 WT mice; details: treatment of mouse skin; text to Fig 1b
Protocol: Fig. 1 Lugdunin sensitizes epithelial cells for innate immune defense. a Primary human keratinocytes (PHKs) were pretreated with S. epidermidis conditioned medium (CM), indicated lugdunin concentrations, or the combination of both for 20 h. Subsequently, cells were infected with S. aureus for 1.5 h followed by cell lysis and determination of colony-forming units (CFUs). Shown is one representative experiment of three independent experiments with six technical replicates ± s.e.m. n.s., not significant. b Dorsal skin of mice was pretreated with S. epidermidis CM, 1.5 µg lugdunin alone or in combination with S. epidermidis CM for 24 h. Subsequently, S. aureus CFUs were determined. Horizontal lines represent the mean of each group ± s.e.m. c PHKs were treated with 2 μM lugdunin or with S. epidermidis CM alone or in combination for 20 h and subsequently expression of indicated antimicrobial peptides (AMPs) (respective protein names in brackets) was analyzed and normalized to actin. Shown is one representative experiment of three independent experiments with two technical replicates ± s.e.m. d PHKs were treated with 2 µM lugdunin or 100 ng/mL Pam2Cys for 5 h and subsequently the concentration of indicated cytokines in the supernatant was analyzed by LEGENDplex^TM (BioLegend). […]

Lugdunin
CXCL8 expression normalized to actin ([1]; lugdunin 0.5 µM, medium = 1, two technical replicates): 1.3 and 1.16 | CXCL8 expression normalized to actin ([1]; lugdunin 1 µM, two technical replicates): 1.15 and 1.02 | CXCL8 expression normalized to actin ([1]; lugdunin 2 µM, two technical replicates): 2.66 and 2.46 | CXCL8 expression normalized to actin ([1]; lugdunin 3 µM, two technical replicates): 1.96 and 1.97 | CXCL8 expression normalized to actin ([1]; lugdunin 5 µM, two technical replicates): 2.91 and 2.73 | CXCL8 expression normalized to actin ([1]; lugdunin 10 µM, two technical replicates): 1.84 and 1.91 | reduction of colonizing S. aureus (in words) [2]: slight, but not significant, reduction
